Where two headings read alike, the source gives them in different places.
What was measured:
[1] = tested on: murine neocortical neurones; test: Assay for NMDA-induced toxicity in neuronal cultures (MTT); type: cell-based; settings: Mus musculus, NMDA 600 μM, 1 h, compound added 30 min prior, read-out: EC50 (inhibition of NMDA-induced toxicity)
Description: Neuronal cell death was assessed using a 3-(4,5-dimethylthiazol-2yl)-2,5-diphenyltetrazolium bromide (MTT) assay in which NMDA-induced cellular changes are reflected as altered mitochondrial activity (Ankarcrona et al., 1995), as estimated by the formation of a formazan dye, which is measured spectrophotometrically. The procedure employed is essentially that of Roehm et al. (1991) with minor modifications as previously described elsewhere in work from our laboratories Larm et al. (1996).
Primary cultures of murine neocortical neurones were established as described elsewhere (Larm et al., 1996). The effects of experimental compounds were tested in the cultures at 8 days in vitro. Exposure to NMDA (600 μM, 1 h) and other compounds was performed in an humidified incubator (5% CO2, 8% O2) at 37° C. in anti-oxidant free medium with compounds under evaluation being added 30 min prior to NMDA. For these conditions the culture medium was modified by omitting the following components: D,L-α-tocopherol, D,L-α-tocopherol acetate, catalase, superoxide dismutase and L-glutamine. Other details are described in Larm et al. (1996). Absorbance was read at 570 nm using a Ceres UV900 microplate reader. Control cultures were included in each experiment containing either vehicle alone or vehicle plus compound. These controls were taken as 100% neuronal viability, under the experimental conditions, and each experiment also included 500 μM L-glutamate representing 100% glutamatergic neuronal cell death. Background cell death in vehicle control cultures was 5-8%.
Concentration-response curves were generated as described elsewhere (Larm et al., 1996).

[2] = target: NMDA receptor-ionophore complex (polyamine-sensitive ifenprodil binding site); test: NMDA assay: competitive binding against [125I]ifenprodil in rat cortical membranes; settings: 30 min, 20° C., pH 7.7
Description: The NMDA receptor-ionophore complex consists of a number of interacting domains, including one for polyamines where ifenprodil binds to exert its non-competitive antagonism.
The purified material was stored in methanol at -20° C.
Incubations were for 30 min. at 20° C., in triplicate, employing 12 concentrations of competing drugs. Non-specific binding was defined with 10 mM spermine. Assays were terminated by rapid filtration through GF/B filter paper and washing.

[3] = tested on: lipid peroxidation (MDA formation) in rat brain homogenate; test: Antioxidant assay: Fe3+-stimulated lipid peroxidation (TBARs / MDA formation) in rat brain homogenate; type: biochemical
Excerpt: Lipid peroxidation has been assessed in the present study using two procedures adopted from that described by Ohkawa et al. (1979) and Cheng et al. (1994). The compounds of the present invention have shown significant antioxidant effect in both assay systems.
Malondialdehyde (MDA) is one of the breakdown products of lipid peroxidation. MDA reacts with thiobarbituric acid (TBA) to produce a characteristic pink colour that can be measured spectrophotomerically. […] The present method has been modified from those described by Ohkawa et al. (1979) and Cheng et al. (1994).
Briefly, rat brain 10% homogenates were prepared in aqueous 20 mM Tris-HCl buffer, pH 7.4 media using a Polytron homogeniser. Assays contained 100 μl of rat brain homogenate and various concentrations of test compound (10 μl) were incubated for 10 min at 37° C. Ten μl of 1.0 or 0.1 mM Fe^3+ solution was then added to stimulate lipid peroxidation and the homogenates were incubated for a further 30 min at 37° C. The reaction was stopped by addition of sodium dodecyl sulphate (100 μl of 8.1% wt/vol solution) and 750 μl of 20% sodium acetate buffer (pH 3.5). The precipitated proteins were then removed by centrifugation at 10000 g for 15 min. Five hundred μl of clear supernatant was heated with 1 ml TBA solution (0.8% wt/vol) at 95° C. for 60 min. The samples were cooled and 200 μl of each sample was pipetted into a 96 well plate and absorbencies read at 532 nm using a Ceres UV900C microplate reader. Blank values representing samples containing 20 mM Tris-HCl and Fe^3+ only were subtracted from all values. Each value was expressed as a percentage of that for samples containing homogenate and Fe^3+ only (ie, no drug). From concentration response curves the concentrations causing 50% inhibition of MDA formation (IC50 values) for the test compounds were determined by computer-assisted linear regression analysis according to published methods (Leutner, 1982). These compared favourably with the values obtained in the assay with the benchmark antioxidant compound trolox. […]

[4] = Gotti et al., 1988; cited from earlier work
[5] = tested on: polyamine sensitive binding site of the NMDA receptor complex; settings: Carter et al., Reynolds et al., Robinson et al.; cited from earlier work
[6] = tested on: methamphetamine-induced loss of neostriatal tyrosine hydroxylase activity; settings: mice; Sonsalla et al., 1991; cited from earlier work
[7] = Fe^3+ 100 μM, read-out: ~IC50 (inhibition of MDA formation), Fe^3+ 100 μM
[8] = Fe^3+ 1000 μM, read-out: ~IC50 (inhibition of MDA formation), Fe^3+ 1000 μM

| Ki [2] [µM] | IC50 [3, 7] [µM] | IC50 [3, 8] [µM] | Compound | EC50 [1] [µM] | neuroprotective properties / antiischaemic [4] | interaction with the polyamine sensitive site of the NMDA receptor complex [5] | protection from methamphetamine-induced loss of neostriatal tyrosine hydroxylase activity [6] |
| --- | --- | --- | --- | --- | --- | --- | --- |
| – | – | – | C[C@@H]([C@H](O)c1ccc(O)cc1)N1CCN(Cc2cc(C(C)(C)C)c(O)c(C(C)(C)C)c2)CC1 (relative stereo) | 3.01 | – | – | – |
| 15.7 ± 4.6 | ~16.8 | ~14.9 | C[C@H]([C@H](O)c1ccc(O)cc1)N1CCN(Cc2cc(C(C)(C)C)c(O)c(C(C)(C)C)c2)CC1 (relative stereo) [2 ((R, R)-racemic)] | – | – | – | – |
| 14.5 ± 5.6 | ~23.8 | ~24.1 | C[C@@H]([C@H](O)c1ccc(O)cc1)N1CCN(Cc2cc(C(C)(C)C)c(O)c(C(C)(C)C)c2)CC1 (relative stereo) [2 ((R, S)-racemic)] | – | – | – | – |
| – | – | – | C[C@H]([C@H](O)c1ccc(O)cc1)N1CCN(Cc2cc(C(C)(C)C)c(O)c(C(C)(C)C)c2)CC1 (relative stereo) [Compound 2 ((R, R)-racemic)] | 1.28 | – | – | – |
| 13 ± 0.6 | ~32.7 | ~18.3 | CC(C)(C)c1cc(CN2CCN(CC(O)c3ccc(O)cc3)CC2)cc(C(C)(C)C)c1O (stereo not shown) [Compound 1, 1-(2-(4-hydroxyphenyl)-2-hydroxy)ethyl-4-(3,5-bis(1,1-dimethylethyl)-4-hydroxyphenyl)methylpiperazine] | – | – | – | – |
| 10.8 ± 0.6 | ~57.2 | ~41.4 | CC(C)(C)c1cc(CN2CCN(CC(O)c3ccc(Cl)cc3)CC2)cc(C(C)(C)C)c1O (stereo not shown) [Compound 33, 1-(2-(4-Chlorophenyl)-2-hydroxy)ethyl-4-(3,5-bis(1,1-dimethylethyl)-4-hydroxyphenyl)methylpiperazine] | 0.39 | – | – | – |
| 14.6 ± 2.8 | ~25.4 | ~36.3 | CC(C(O)c1ccc(Cl)cc1)N1CCN(Cc2cc(C(C)(C)C)c(O)c(C(C)(C)C)c2)CC1 (stereo not shown) [Compound 34, 1-(2-(4-Chlorophenyl)-2-hydroxy-1-methyl)ethyl-4-(3,5-bis(1,1-dimethylethyl)-4-hydroxyphenyl)methylpiperazine] | – | – | – | – |
| 16.8 ± 3.2 | ~27.9 | ~9.3 | CC(C)(C)c1cc(CN2CCN(CCC(O)c3ccc(Cl)cc3)CC2)cc(C(C)(C)C)c1O (stereo not shown) [Compound 35, 1-(3-(4-Chlorophenyl)-3-hydroxy)propyl-4-(3,5-bis(1,1-dimethylethyl)-4-hydroxyphenyl)methylpiperazine] | – | – | – | – |
| 15.2 ± 3.9 | ~3.6 | ~2.4 | Cc1c(C)c2c(c(C)c1O)CCC(C)(CN1CCN(CC(O)c3ccc(Cl)cc3)CC1)O2 (stereo not shown) [Compound 49] | 2.9 | – | – | – |
| 7 ± 1.5 | ~96.8 | ~53.3 | CC(C)(C)c1cc(CN2CCN(CC(O)c3ccc(Br)cc3)CC2)cc(C(C)(C)C)c1O (stereo not shown) [Compound 65, 1-(2-(4-bromophenyl)-2-hydroxy)ethyl-4-(3,5-bis(1,1-dimethylethyl)-4-hydroxyphenyl)methylpiperazine] | 0.24 | – | – | – |
| 5.4 ± 0.6 | ~19.5 | ~15.2 | CC(C)(C)c1cc(CN2CCN(CC(O)c3ccc(F)cc3)CC2)cc(C(C)(C)C)c1O (stereo not shown) [Compound 161, 1-(2-(4-fluorophenyl)-2-hydroxy)ethyl-4-(3,5-bis(1,1-dimethylethyl)-4-hydroxyphenyl)methylpiperazine] | – | – | – | – |
| 11.7 ± 1 | ~59.6 | ~22.3 | CC(C)(C)c1cc(CN2CCN(CC(O)c3ccc(OC(F)(F)F)cc3)CC2)cc(C(C)(C)C)c1O (stereo not shown) [Compound 193, 1-(2-(4-trifluoromethoxyphenyl)-2-hydroxy)ethyl-4-(3,5-bis(1,1-dimethylethyl)-4-hydroxyphenyl)methylpiperazine] | – | – | – | – |
| 19.1 ± 5.7 | – | – | CC(C)(C)c1cc(CN2CCN(CC(O)c3ccc4c(c3)OCO4)CC2)cc(C(C)(C)C)c1O (stereo not shown) [Compound 211, 1-(2-(3,4-methylenedioxyphenyl)-2-hydroxy)ethyl-4-(3,5-bis(1,1-dimethylethyl)-4-hydroxyphenyl)methyl piperazine] | – | – | – | – |
| 19.6 ± 5.2 | – | – | CC(C)(C)c1cc(CN2CCN(CC(O)c3ccc(Cl)s3)CC2)cc(C(C)(C)C)c1O (stereo not shown) [Compound 229, 1-(2-(2-chlorothiophen-5-yl)-2-hydroxy)ethyl-4-(3,5-bis(1,1-dimethylethyl)-4-hydroxyphenyl)methylpiperazine] | – | – | – | – |
| 8.5 ± 3.1 | ~9.9 | ~10.3 | COc1ccc(OC)c(C(O)CN2CCN(Cc3cc(C(C)(C)C)c(O)c(C(C)(C)C)c3)CC2)c1 (stereo not shown) [Compound 247, 1-(2-(2,5-dimethoxyphenyl)-2-hydroxy)ethyl-4-(3,5-bis(1,1-dimethylethyl)-4-hydroxyphenyl)methylpiperazine] | – | – | – | – |
| 13.2 ± 2.6 | ~59.4 | ~38.5 | Cc1cc(CN2CCN(CC(O)c3ccc(Cl)cc3)CC2)cc(C(C)(C)C)c1O (stereo not shown) [Compound 265, 1-(2-(4-chlorophenyl)-2-hydroxy)ethyl-4-(3-(1,1-dimethylethyl)-4-hydroxy-5-methylphenyl)methylpiperazine] | – | – | – | – |
| 15.1 ± 6.1 | ~32.4 | ~26.6 | CC(C)(C)c1cc(CN2CCN(CC(O)c3cccc([N+](=O)[O-])c3)CC2)cc(C(C)(C)C)c1O (stereo not shown) [Example 6, 1-(2-(3-nitrophenyl)-2-hydroxy)ethyl-4-(3,5-bis(1,1-dimethylethyl)-4-hydroxyphenyl)methyl piperazine] | – | – | – | – |
| – | – | – | CC(C)(C)c1cc(CN2CCN(CC(O)c3cccc(Cl)c3)CC2)cc(C(C)(C)C)c1O (stereo not shown) [Example 12, 1-(2-(3-chlorophenyl)-2-hydroxy)ethyl-4-(3,5-bis(1,1-dimethylethyl)-4-hydroxyphenyl)methylpiperazine] | 0.76 | – | – | – |
| 6.1 ± 2 | < 3 | < 1 | Cc1cc(OCCN2CCN(CC(O)c3ccc(Cl)cc3)CC2)c(C)c(C)c1O (stereo not shown) [Example 21, 1-(2-(4'-chlorophenyl)-2-hydroxy)ethyl-4-(2-(2', 3', 5'-trimethyl-4'-hydroxyphenoxy))ethyl piperazine] | – | – | – | – |
| – | – | – | OC(CN1CCC(Cc2ccc(F)cc2)CC1)c1ccc(Cl)cc1 (stereo not shown) [eliprodil] | – | neuroprotective properties in models of neurodegeneration following ischaemia | interacting with the polyamine sensitive binding site of the NMDA receptor | – |
| – | ~88.2 | ~90.8 | Cc1c(C)c2c(c(C)c1O)CCC(C)(C(=O)O)O2 (stereo not shown) [trolox, reference compound] | – | – | – | – |

| Compound | Ki [2] [µM] | IC50 [3, 7] [µM] | IC50 [3, 8] [µM] | EC50 [1] [µM] | neuroprotective properties / antiischaemic [4] | interaction with the polyamine sensitive site of the NMDA receptor complex [5] | protection from methamphetamine-induced loss of neostriatal tyrosine hydroxylase activity [6] |
| --- | --- | --- | --- | --- | --- | --- | --- |
| CC(C(O)c1ccc(O)cc1)N1CCC(Cc2ccccc2)CC1 (stereo not shown) [ifenprodil] | 19.5 ± 1.2 | – | – | – | neuroprotective properties in models of neurodegeneration following ischaemia | interacting with the polyamine sensitive binding site of the NMDA receptor | protect mice from the methamphetamine-induced loss of neostriatal tyrosine hydroxylase activity |
